Test results: ChEMBL document CHEMBL1201862, “PubChem BioAssay data set” (2004)
Calls of active or inactive are those of the source.

How the values were obtained:
[1] = molecular target: Cyclin-dependent kinase 5/CDK5 activator 1 (Homo sapiens, UniProt Q00535); assay: CDK5/p35 kinase inhibitors, dose response, biochemical, cherry-picked samples, set 2 (AID 504545)
[2] = molecular target: Eukaryotic translation initiation factor 4H (Homo sapiens, UniProt Q15056); assay: human eIF4H binding inhibitors, primary screen, translation initiation inhibitor project, biochemical, uHTS, fluorescence polarization (AID 2012)
[3] = molecular target: DNA dC->dU-editing enzyme APOBEC-3G (Homo sapiens, UniProt Q9HC16); type: functional;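 further: Dose-response counterscreen measuring inhibition of APOBEC3G DNA deaminase activity, run while confirming APOBEC3A inhibitors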
[4] = molecular target: T1, Polyadenylate-binding protein 1 (Homo sapiens, UniProt P11940); assay: PABP poly(A) RNA binding inhibitors, primary screen, biochemical, fluorescence polarization, uHTS (AID 2014)
[5] = molecular target: DNA dC->dU-editing enzyme APOBEC-3A (Homo sapiens, UniProt P31941); assay: Dose Response confirmation of small molecule APOBEC3A DNA Deaminase Inhibitors via a fluorescence-based single-stranded DNA deaminase assay. [Related pubchem assays (depositor defined):AID493011, AID493024]; type: functional
Bcl-2-like protein 10 = molecular target: T2, Bcl-2-like protein 10 (Homo sapiens, UniProt Q9HD36); assay: displacers of TR3 peptide from Bcl-B, primary screen, selectivity assay for Bfl-1 inhibitor project, biochemical, fluorescence polarization, FITC-TR3 peptide (AID 748);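 further: fluorescence polarization from a fluorescein-labelled TR3 peptide binding purified Bcl-B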
T2 sequence (Q9HD36 whole entry): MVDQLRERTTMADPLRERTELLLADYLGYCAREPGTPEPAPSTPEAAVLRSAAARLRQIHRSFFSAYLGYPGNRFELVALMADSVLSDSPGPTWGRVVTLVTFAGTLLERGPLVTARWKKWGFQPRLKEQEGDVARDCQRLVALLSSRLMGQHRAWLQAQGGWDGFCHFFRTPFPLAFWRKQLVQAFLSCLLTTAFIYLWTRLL

[6] = molecular target: Acyl-homoserine lactone acylase PvdQ (Pseudomonas aeruginosa (strain LESB58), UniProt Q9I194); assay: P. aeruginosa PvdQ acylase inhibitors, dose response, biochemical, fluorescence, plate reader and imaging, cherry-picks (AID 493231)
[7] = molecular target: T3, DNA repair and recombination protein RAD54-like (Homo sapiens, UniProt Q92698); assay: inhibitors of human RAD54 branch migration, confirmation, biochemical, fluorescence, cherry-picked samples, dose series (AID 651657); type: functional
T3 sequence (Q92698 whole entry): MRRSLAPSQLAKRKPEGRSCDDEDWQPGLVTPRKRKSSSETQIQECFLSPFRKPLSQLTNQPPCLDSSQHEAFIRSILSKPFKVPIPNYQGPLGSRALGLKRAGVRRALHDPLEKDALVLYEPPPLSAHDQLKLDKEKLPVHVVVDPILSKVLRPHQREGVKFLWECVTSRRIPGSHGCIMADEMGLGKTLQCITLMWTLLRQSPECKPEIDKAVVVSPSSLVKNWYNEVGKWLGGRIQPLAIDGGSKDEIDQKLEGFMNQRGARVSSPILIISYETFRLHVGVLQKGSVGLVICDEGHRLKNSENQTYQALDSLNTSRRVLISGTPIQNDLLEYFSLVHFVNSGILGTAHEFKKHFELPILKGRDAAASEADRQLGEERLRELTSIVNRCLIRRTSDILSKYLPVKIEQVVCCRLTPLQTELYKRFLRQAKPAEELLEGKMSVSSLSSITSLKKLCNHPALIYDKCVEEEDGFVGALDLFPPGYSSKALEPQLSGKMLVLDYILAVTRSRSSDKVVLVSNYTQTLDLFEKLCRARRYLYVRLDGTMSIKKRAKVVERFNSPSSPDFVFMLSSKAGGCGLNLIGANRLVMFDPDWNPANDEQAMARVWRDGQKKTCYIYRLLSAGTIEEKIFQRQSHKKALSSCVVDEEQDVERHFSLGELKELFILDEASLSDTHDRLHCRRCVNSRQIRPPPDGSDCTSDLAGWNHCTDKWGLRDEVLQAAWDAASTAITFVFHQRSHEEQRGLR

[8] = A cytotoxicity screen of small molecule inhibitors of the PhoP region in Salmonella typhi identified in the primary screen. [Related pubchem assays: 1850, 1864, 1985 ]; type: functional
Aspartyl aminopeptidase = molecular target: T4, Aspartyl aminopeptidase (Plasmodium falciparum 3D7, UniProt Q8I2J3)
T4 sequence (Q8I2J3 whole entry): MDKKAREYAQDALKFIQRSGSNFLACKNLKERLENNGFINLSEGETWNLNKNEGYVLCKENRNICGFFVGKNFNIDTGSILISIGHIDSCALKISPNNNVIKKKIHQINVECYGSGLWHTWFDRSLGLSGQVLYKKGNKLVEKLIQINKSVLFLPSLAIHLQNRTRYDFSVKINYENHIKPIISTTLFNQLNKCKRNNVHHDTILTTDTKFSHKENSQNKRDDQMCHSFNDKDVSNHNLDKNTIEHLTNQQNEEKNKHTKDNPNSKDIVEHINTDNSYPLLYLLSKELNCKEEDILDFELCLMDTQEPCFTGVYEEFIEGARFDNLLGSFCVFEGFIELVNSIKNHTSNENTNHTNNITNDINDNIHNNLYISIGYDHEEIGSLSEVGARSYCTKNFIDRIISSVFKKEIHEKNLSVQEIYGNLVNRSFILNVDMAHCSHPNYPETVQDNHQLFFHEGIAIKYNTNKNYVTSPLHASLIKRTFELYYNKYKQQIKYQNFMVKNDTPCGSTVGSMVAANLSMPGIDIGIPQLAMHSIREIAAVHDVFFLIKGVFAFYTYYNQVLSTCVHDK

Leucine aminopeptidase = molecular target: T5, Leucine aminopeptidase (Plasmodium falciparum 3D7, UniProt Q8IL11); assay: P. falciparum M17LAP inhibitors, primary screen, biochemical, fluorogenic H-Leu-NHMec substrate, 1536-well (AID 1619); type: functional
T5 sequence (Q8IL11 whole entry): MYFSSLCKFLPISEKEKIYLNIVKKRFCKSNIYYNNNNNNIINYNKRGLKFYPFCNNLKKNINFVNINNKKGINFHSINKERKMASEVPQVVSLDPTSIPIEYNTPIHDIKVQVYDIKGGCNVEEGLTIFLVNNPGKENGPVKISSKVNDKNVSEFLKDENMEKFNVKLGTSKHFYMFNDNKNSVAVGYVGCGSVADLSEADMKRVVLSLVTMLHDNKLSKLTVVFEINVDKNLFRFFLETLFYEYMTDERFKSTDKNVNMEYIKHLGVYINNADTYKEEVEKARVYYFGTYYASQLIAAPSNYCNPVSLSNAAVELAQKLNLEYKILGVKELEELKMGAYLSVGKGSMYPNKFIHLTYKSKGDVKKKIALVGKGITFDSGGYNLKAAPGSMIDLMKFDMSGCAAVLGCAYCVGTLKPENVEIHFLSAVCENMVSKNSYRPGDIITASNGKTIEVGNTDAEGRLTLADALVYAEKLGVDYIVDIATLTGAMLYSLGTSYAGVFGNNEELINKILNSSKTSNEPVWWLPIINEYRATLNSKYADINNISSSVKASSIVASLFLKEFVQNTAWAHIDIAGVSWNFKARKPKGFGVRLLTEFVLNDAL

Procathepsin L = Procathepsin L (Homo sapiens, UniProt P07711)
Cytochrome P450 2C9 = Cytochrome P450 2C9 (Homo sapiens, UniProt P11712); conditions: Potency
[9] = molecular target: Neurotensin receptor type 1 (Homo sapiens, UniProt P30989); type: functional;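 further: Image-based confirmatory dose-response assay measuring agonist activity at NTR1; NTR1-expressing U2OS osteosarcoma cells imaged for beta-arrestin GFP spot formation; agonist potency where compounds increase beta-arrestin recruitment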
[10] = molecular target: Female germline-specific tumor suppressor gld-1 (Caenorhabditis elegans, UniProt Q17339); assay: inhibitors of GLD-1 binding to TGE RNA, dose response, biochemical, fluorescence polarization, C. elegans (AID 2802);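 further: fluorescence polarization of labeled TGE RNA bound by purified gld-1 protein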
Protein Rev = Protein Rev (Human immunodeficiency virus type 1 group M subtype B (isolate HXB2)(HIV-1), UniProt P04618); assay: inhibitors of Rev binding to RRE RNA, dose response, biochemical, fluorescence polarization, HIV-1 (AID 434976); design: species or system Human immunodeficiency virus 1
[11] = molecular target: T1, Polyadenylate-binding protein 1; assay: PABP1 MLLE–PAM2 interaction inhibitors, dose response, miRNA deadenylation inhibitor project, biochemical, fluorescence polarization, Cy5-PAM2 peptide, secondary (AID 602260); type: functional; conditions: read-out: IC50_Mean
[12] = molecular target: T1, Polyadenylate-binding protein 1; assay: PABP1 MLLE–PAM2 binding inhibitor potency, dose response, biochemical, fluorescence polarization, FITC-PAM2 peptide (AID 602259); type: functional; conditions: read-out: IC50_Mean
[13] = THP-1 cell cytotoxicity, dose response, cytotoxicity control for Vif-APOBEC3G degradation inhibitor project, THP-1 cells (AID 1117359); type: functional; conditions: Human immunodeficiency virus 1, THP-1
Protein Tat = Protein Tat (Human immunodeficiency virus type 1 group M subtype B (isolate HXB2)(HIV-1), UniProt P04608); type: functional;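 further: tat binding to TAR RNA read out by fluorescence polarization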
Sequence of Protein Tat (P04608 whole entry): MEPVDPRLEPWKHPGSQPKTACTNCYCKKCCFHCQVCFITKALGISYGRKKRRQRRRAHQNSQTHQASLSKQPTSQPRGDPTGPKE

T1 sequence (P11940 whole entry): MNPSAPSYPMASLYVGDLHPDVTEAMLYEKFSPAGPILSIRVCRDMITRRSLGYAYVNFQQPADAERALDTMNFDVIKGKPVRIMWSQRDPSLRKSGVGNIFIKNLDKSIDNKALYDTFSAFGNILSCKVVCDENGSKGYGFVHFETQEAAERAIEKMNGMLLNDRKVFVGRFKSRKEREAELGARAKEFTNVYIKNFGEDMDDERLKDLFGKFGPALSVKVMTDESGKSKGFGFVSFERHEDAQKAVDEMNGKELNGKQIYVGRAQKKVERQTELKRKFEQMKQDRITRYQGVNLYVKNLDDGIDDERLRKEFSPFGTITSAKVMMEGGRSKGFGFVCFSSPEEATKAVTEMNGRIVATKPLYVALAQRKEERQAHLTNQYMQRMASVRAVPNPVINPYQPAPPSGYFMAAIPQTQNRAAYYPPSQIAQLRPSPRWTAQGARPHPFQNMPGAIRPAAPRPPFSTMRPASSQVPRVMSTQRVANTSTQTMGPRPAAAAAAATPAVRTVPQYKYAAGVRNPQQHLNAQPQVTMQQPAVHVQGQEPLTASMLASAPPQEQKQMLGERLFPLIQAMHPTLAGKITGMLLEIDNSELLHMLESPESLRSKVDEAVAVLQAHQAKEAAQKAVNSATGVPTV
Sequence of Protein Rev (P04618 whole entry): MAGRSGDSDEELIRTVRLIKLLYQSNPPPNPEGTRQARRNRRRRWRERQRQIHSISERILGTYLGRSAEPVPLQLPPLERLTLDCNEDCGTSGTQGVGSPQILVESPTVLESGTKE
Sequence of Procathepsin L (P07711 whole entry): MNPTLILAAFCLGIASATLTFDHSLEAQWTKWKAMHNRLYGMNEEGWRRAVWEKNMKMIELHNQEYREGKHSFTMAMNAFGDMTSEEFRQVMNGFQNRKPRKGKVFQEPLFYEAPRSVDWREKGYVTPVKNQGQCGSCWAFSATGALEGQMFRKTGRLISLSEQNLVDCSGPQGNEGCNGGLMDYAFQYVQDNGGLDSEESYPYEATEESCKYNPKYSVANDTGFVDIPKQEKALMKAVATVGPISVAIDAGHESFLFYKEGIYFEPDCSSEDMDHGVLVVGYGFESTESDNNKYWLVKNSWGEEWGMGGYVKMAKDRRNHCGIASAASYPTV
Sequence of Cytochrome P450 2C9 (P11712 whole entry): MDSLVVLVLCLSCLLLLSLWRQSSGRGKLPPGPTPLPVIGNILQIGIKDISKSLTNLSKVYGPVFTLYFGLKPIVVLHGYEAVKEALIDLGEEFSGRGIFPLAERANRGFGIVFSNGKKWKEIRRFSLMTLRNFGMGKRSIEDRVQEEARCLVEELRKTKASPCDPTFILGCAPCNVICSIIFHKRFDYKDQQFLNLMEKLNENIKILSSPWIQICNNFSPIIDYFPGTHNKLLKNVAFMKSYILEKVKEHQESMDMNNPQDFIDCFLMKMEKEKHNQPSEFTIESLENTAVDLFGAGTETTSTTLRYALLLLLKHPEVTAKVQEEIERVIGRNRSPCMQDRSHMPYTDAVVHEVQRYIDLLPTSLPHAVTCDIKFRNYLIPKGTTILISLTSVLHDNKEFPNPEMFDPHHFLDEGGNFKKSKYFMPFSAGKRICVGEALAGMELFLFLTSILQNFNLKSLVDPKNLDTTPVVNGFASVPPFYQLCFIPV
Sequence of Female germline-specific tumor suppressor gld-1 (Q17339 whole entry): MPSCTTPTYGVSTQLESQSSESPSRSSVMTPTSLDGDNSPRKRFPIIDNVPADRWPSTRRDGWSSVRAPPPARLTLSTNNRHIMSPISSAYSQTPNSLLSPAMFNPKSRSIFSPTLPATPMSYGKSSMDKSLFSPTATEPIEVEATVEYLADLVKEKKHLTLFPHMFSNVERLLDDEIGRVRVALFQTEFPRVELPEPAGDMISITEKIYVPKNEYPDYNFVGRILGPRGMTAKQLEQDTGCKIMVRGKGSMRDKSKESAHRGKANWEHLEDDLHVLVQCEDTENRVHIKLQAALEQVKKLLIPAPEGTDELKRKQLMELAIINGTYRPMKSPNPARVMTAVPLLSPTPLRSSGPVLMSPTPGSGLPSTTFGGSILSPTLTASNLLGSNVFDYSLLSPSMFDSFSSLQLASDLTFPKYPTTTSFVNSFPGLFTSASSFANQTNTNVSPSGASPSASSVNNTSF
Sequence of Cyclin-dependent kinase 5/CDK5 activator 1 (Q00535 whole entry): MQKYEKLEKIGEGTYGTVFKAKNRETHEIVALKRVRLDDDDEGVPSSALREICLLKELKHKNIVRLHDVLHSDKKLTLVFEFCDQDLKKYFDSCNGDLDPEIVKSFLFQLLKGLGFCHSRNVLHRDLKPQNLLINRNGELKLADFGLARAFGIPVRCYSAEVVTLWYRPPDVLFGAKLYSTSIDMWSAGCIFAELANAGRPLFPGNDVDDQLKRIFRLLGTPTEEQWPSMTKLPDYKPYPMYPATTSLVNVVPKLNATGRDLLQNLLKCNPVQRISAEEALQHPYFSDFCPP
Sequence of Cyclin-dependent kinase 5/CDK5 activator 1 (Q15078 whole entry, further chain): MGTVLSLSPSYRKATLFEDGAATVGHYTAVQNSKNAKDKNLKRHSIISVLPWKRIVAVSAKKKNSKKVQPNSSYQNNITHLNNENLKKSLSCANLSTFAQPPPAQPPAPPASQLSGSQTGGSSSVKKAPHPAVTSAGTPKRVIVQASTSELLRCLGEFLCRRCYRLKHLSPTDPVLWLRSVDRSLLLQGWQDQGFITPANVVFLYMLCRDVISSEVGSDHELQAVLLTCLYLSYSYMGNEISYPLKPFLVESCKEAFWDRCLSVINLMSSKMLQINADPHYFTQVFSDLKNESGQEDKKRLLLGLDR
Sequence of Acyl-homoserine lactone acylase PvdQ (Q9I194 24-193 limits assumed): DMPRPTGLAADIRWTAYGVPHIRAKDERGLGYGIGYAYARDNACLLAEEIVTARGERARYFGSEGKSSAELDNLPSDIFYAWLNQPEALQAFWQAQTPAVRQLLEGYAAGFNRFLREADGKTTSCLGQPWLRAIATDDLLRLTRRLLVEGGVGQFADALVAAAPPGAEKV
Sequence of Acyl-homoserine lactone acylase PvdQ (Q9I194 217-762 limits assumed): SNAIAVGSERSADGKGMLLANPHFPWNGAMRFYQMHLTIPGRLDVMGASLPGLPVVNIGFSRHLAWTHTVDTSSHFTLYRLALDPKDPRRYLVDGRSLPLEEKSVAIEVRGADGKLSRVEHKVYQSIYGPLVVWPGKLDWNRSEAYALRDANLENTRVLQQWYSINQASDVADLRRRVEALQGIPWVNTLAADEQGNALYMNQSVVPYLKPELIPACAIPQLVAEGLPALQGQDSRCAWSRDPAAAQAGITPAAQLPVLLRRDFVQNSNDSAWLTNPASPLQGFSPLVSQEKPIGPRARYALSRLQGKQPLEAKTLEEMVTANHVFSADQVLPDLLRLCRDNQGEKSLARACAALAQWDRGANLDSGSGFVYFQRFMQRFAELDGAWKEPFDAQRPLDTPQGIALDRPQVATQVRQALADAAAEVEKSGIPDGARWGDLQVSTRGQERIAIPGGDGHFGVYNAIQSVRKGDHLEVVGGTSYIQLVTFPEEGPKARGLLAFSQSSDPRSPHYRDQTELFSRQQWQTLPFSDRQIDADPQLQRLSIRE
Sequence of DNA dC->dU-editing enzyme APOBEC-3G (Q9HC16 whole entry): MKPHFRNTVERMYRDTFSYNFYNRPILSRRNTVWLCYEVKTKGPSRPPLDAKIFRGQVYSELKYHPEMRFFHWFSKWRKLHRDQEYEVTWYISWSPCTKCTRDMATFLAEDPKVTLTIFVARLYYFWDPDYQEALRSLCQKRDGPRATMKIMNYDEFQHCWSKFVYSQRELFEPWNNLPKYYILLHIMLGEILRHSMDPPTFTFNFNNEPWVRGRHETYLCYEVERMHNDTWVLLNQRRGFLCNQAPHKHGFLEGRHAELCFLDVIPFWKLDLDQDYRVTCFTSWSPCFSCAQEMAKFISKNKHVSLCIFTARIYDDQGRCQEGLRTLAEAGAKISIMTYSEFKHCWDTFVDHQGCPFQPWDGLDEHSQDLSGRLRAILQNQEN
Sequence of DNA dC->dU-editing enzyme APOBEC-3A (P31941 whole entry): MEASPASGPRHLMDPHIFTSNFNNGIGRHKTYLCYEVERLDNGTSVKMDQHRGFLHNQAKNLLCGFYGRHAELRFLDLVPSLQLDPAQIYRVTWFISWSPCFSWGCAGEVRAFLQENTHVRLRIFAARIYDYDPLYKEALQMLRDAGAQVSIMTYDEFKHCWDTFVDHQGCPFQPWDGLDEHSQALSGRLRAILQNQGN
Sequence of Neurotensin receptor type 1 (P30989 whole entry): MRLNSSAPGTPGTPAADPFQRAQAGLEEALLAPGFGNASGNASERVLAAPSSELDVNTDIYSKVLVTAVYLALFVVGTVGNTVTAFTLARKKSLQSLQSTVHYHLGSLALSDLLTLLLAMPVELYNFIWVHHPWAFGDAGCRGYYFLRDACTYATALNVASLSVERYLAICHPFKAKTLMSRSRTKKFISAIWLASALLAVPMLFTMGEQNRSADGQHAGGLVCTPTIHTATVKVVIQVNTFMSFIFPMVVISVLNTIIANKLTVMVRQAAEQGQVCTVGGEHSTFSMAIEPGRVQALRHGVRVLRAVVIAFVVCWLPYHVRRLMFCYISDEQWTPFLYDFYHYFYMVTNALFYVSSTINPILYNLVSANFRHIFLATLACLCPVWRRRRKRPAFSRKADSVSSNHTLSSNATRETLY

SMILES: COc1cc(C(=O)N2CCN(c3ccccn3)CC2)cc(OC)c1OC
- AC50 [1]: 2.75 µM (active)

SMILES: CCN1C(NCCOC)=N[C@@H](c2cccc(F)c2)C(C(=O)OC)=C1C
- IC50 [2]: > 100 µM (inactive)
- IC50 [3]: 5.2 µM (active)
- IC50 [4]: 12.8 µM (active)
- IC50 [5]: 3.86 µM (active)

SMILES: COc1ccc(-c2nc3n(n2)C(c2cccnc2)C(C(N)=O)=C(C)N3)cc1 (centres undefined)
- IC50 (Bcl-2-like protein 10): > 100 µM (inactive)

SMILES: Cc1cc(C)nc(N(C#N)Cc2ccccc2)n1
- AC50 [6]: 9.18 µM (active)

SMILES: COc1cc2c(C#N)c(N3CCN(C)CC3)nc(N)c2c(N)n1
- IC50 (Bcl-2-like protein 10): > 100 µM (inactive)
- AC50 [7]: 28.9 µM (active)

SMILES: COc1nnc(-c2ccc(N3CCOCC3)c(NC(=O)c3ccc(C)cc3)c2)c2ccccc12
- EC50 [8]: > 50 µM (active)

SMILES: Cc1ccc(NC2=NCCCS2)cc1Cl
- EC50 [8]: > 50 µM (active)

SMILES: O=C(CSc1nnc[nH]1)OCN1C(=O)c2ccccc2C1=O
- IC50 (Aspartyl aminopeptidase): 350 nM (active)
- IC50 (Leucine aminopeptidase): 64.4 µM (active)
- IC50 (Procathepsin L): > 59.6 µM (not active)

SMILES: CN1CCN(c2ncc3nc(-c4cccc(C#N)c4)c(=O)n(C[C@H]4CCCO4)c3n2)CC1
- AC50 (Cytochrome P450 2C9): 25.1 µM (inconclusive)

SMILES: NCCC[C@@H](CC(=O)N[C@@H]1CCCC[C@H]1C(=O)N[C@H](CC(=O)N[C@@H](CCC(=O)O)CC(=O)O)Cc1ccccc1)NC(=O)C[C@H](CO)NC(=O)[C@@H]1CCCC[C@H]1N
- AC50 (Cytochrome P450 2C9): 39.8 µM (inconclusive)

SMILES: Cc1cc(C)nc(N(C#N)Cc2ccc(Cl)cc2)n1
- AC50 [6]: 21.9 µM (active)

SMILES: CCCCn1c(SCC(=O)N2CCC(C)CC2)nc2cc(S(N)(=O)=O)ccc21
- EC50 [9]: 20.7 µM (inactive)

SMILES: NC(=O)c1cc([N+](=O)[O-])c(Cl)cc1NCc1cccnc1
- AC50 [1]: 14.3 µM (active)

SMILES: Cc1ccc[n+](-c2nc([O-])sc2C=NNc2ccc([N+](=O)[O-])cc2)c1
- IC50 [10]: 3.96 µM (active)
- IC50 (Protein Rev): 10.1 µM (not active)
- IC50 [11]: > 66 µM (inactive)
- IC50 [12]: 33.3 µM (inactive)

SMILES: CCOC(=O)NC(=O)COC(=O)c1ccc(Sc2nnc[nH]2)c([N+](=O)[O-])c1
- IC50 (Aspartyl aminopeptidase): 609 nM (active)
- IC50 (Procathepsin L): > 59.6 µM (not active)

SMILES: COc1ccc(/C=N/c2c(-c3ccco3)nc3ccccn23)cc1OC
- IC50 [10]: 3.71 µM (active)
- IC50 (Protein Rev): 56.1 µM (not active)
- CC50 [13]: > 40 µM (active)
- IC50 (Protein Tat): 8.15 µM (inconclusive)
